Source: patent US20240217977A1, “DIAZEPANONE-FUSED PYRIMIDINE COMPOUNDS, COMPOSITIONS AND MEDICINAL APPLICATIONS THEREOF” (Blueprint Medicines Corporation, priority 2021, published 2024)

Assays:
Assay type in all cases: cell-based
A431 cells = test: Cellular proliferation (Alamar Blue) assay, A431 cells; conditions: Homo sapiens, A-431, 72 hr incubation
Description: (§1) Example 2: Cellular Proliferation (Alamar Blue) Assays
(§2) • 1. EGFR(D770_N771insSVD) expressing Ba/F3 stable cell line • 2. EGFR (A767_dupASV) expressing Ba/F3 stable cell line • 3. A431 cells • 4. EGFR (H773insNPH) expressing Ba/F3 stable cell line • 5. HER2 (A775_G775insYVMA) expressing Ba/F3 stable cell line
(§3) • 1. Seed cells at 5000 for A431 and 15,000 cells for Ba/F3 in 100 μL/well in complete media (for A431: DMEM with 10% FBS and for Ba/F3 cells: RPMI with 10% FBS) in • 96-well tissue culture plate. Leave outer wells without cells for background measurements. Incubate at 37 degree Celsius in 5% C02 humidified incubator for 16-18 hours. • 2. Add 0.025 ml of 5× concentration compound dilution or DMSO control. Final compound concentration range is 10-0.0005 μM prepared in 3-fold serial dilutions. Incubate for 72 hr at 37 degree Celsius in 5% CO2 humidified incubator. • 3. Add 0.0125 ml Alamar Blue™ reagent to each well with multi-channel pipette and tap gently on each side of the plate to mix. Incubate for 3 hours at 37 degree Celsius in 5% CO2 humidified incubator. • 4. Read plates on fluorescence reader (Tecan Spark Control, Device: Spark, Serial #: 1801006040) at 540 nm excitation, 590 nm emission wavelength. • 5. Data analysis was performed using XLfit 5.5.0.5.

[1] = biological target: EGFR (A767_dupASV) expressing Ba/F3 stable cell line (Homo sapiens, UniProt P00533, DUP767-769, cells depend on it); test: Cellular proliferation (Alamar Blue) assay, EGFR (A767_dupASV) Ba/F3; conditions: 72 hr incubation, read-out: A767 IC50
Sequence of EGFR (A767_dupASV) expressing Ba/F3 stable cell line (P00533 with tags, fused parts or gaps DUP767-769): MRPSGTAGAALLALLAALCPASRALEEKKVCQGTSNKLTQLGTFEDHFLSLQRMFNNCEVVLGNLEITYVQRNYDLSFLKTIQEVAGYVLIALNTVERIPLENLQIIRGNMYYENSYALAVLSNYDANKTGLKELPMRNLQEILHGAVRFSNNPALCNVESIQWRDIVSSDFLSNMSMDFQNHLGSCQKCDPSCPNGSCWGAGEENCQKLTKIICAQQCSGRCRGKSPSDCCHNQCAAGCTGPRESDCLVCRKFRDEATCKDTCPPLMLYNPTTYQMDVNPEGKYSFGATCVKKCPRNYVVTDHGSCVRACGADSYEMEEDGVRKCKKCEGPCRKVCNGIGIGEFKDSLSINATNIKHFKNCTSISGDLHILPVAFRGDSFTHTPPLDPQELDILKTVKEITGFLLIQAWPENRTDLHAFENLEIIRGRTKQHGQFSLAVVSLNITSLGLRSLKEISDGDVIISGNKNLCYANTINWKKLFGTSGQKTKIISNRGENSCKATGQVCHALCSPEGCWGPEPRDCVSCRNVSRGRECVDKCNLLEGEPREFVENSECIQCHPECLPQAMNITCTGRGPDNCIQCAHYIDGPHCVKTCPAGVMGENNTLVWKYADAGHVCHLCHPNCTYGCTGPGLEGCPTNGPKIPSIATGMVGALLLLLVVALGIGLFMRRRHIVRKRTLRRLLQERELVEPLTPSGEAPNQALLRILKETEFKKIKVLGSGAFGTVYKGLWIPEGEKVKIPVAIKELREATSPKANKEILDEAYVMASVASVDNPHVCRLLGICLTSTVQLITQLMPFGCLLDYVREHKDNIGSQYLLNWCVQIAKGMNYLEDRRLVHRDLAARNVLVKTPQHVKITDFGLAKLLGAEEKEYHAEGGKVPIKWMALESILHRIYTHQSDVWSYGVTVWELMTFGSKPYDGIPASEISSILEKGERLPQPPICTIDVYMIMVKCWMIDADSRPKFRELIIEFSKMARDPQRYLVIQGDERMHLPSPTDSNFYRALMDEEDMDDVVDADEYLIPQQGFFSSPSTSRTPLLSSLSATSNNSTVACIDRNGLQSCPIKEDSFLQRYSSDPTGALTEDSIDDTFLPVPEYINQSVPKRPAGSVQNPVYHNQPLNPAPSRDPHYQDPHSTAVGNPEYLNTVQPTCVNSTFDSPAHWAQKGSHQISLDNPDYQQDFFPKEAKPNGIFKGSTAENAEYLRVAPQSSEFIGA
Description: as §1, §2, §3

[2] = biological target: EGFR(D770_N771insSVD) expressing Ba/F3 stable cell line (Homo sapiens, UniProt P00533, DUP768-770, cells depend on it); test: Cellular proliferation (Alamar Blue) assay, EGFR(D770_N771insSVD) Ba/F3; conditions: 72 hr incubation, read-out: D770 IC50
Sequence of EGFR(D770_N771insSVD) expressing Ba/F3 stable cell line (P00533 with tags, fused parts or gaps DUP768-770): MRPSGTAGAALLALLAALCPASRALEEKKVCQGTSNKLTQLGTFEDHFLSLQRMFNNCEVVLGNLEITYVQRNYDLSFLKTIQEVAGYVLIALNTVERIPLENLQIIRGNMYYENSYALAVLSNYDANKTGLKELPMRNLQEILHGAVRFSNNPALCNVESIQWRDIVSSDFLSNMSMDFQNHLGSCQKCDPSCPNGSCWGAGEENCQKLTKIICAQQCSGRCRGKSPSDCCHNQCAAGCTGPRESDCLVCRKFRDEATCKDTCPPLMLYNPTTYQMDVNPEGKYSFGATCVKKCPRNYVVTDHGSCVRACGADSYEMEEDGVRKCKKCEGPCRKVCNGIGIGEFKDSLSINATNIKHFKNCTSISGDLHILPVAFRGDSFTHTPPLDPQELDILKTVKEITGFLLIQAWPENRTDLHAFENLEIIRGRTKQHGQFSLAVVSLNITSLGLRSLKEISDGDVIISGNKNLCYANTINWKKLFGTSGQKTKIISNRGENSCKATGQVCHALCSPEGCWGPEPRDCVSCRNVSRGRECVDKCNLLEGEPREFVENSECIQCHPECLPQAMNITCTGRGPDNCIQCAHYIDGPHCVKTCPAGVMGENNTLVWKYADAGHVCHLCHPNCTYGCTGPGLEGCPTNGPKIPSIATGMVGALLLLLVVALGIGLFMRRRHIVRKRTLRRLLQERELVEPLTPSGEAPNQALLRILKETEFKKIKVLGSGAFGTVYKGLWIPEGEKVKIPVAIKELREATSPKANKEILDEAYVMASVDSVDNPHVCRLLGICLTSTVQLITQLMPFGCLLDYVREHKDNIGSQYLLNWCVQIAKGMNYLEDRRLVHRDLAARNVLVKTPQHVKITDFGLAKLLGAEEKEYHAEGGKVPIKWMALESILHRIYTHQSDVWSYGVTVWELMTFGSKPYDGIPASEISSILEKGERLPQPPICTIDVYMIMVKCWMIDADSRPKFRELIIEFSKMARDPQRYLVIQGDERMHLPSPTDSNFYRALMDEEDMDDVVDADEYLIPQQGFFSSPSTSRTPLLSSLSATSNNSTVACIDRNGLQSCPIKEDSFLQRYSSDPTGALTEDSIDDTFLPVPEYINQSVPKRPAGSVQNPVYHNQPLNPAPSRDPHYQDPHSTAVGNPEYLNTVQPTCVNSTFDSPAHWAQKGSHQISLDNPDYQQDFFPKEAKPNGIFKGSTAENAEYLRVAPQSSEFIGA
Description: as §1, §2, §3

[3] = biological target: EGFR (H773insNPH) expressing Ba/F3 stable cell line (Homo sapiens, UniProt P00533, DUP771-773, cells depend on it); test: Cellular proliferation (Alamar Blue) assay, EGFR (H773insNPH) Ba/F3; conditions: 72 hr incubation, read-out: NPH IC50
Sequence of EGFR (H773insNPH) expressing Ba/F3 stable cell line (P00533 with tags, fused parts or gaps DUP771-773): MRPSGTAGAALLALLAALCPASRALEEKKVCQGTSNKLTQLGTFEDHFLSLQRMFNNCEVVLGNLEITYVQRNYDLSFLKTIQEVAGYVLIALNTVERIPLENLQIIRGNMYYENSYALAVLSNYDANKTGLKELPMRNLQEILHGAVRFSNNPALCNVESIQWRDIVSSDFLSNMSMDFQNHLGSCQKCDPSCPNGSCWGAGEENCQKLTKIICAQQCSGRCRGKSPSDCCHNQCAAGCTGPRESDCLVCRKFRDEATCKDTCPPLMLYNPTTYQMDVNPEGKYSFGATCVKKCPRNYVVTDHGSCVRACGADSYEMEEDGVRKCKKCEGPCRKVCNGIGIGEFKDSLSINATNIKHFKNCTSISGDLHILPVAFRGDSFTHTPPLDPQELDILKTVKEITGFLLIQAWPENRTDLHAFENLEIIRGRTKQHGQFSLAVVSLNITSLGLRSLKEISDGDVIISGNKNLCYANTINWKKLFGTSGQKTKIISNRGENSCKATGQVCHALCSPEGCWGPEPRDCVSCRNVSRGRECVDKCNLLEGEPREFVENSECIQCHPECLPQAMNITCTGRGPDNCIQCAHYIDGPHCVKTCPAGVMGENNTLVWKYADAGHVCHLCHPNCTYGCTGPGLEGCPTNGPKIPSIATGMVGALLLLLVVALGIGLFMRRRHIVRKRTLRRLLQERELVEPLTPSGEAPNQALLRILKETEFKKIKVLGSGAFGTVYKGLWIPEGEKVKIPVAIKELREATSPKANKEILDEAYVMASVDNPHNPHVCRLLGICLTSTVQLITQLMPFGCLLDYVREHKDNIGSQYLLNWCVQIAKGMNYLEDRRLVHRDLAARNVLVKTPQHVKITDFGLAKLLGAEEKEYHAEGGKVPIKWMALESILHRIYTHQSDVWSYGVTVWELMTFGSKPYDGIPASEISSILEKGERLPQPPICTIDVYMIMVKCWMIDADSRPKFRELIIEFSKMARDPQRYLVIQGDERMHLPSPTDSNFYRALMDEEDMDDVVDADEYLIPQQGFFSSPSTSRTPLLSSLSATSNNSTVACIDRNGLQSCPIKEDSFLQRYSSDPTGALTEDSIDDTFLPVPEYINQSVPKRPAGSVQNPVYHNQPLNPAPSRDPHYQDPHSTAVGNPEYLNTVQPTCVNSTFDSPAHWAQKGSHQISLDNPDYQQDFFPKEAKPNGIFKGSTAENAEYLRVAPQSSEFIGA
Description: as §1, §2, §3

[4] = biological target: HER2 (A775_G775insYVMA) expressing Ba/F3 stable cell line (Homo sapiens, UniProt P04626, DUP772-775, cells depend on it); test: Cellular proliferation (Alamar Blue) assay, HER2 (A775_G775insYVMA) Ba/F3; conditions: 72 hr incubation, read-out: YVMA IC50
Sequence of HER2 (A775_G775insYVMA) expressing Ba/F3 stable cell line (P04626 with tags, fused parts or gaps DUP772-775): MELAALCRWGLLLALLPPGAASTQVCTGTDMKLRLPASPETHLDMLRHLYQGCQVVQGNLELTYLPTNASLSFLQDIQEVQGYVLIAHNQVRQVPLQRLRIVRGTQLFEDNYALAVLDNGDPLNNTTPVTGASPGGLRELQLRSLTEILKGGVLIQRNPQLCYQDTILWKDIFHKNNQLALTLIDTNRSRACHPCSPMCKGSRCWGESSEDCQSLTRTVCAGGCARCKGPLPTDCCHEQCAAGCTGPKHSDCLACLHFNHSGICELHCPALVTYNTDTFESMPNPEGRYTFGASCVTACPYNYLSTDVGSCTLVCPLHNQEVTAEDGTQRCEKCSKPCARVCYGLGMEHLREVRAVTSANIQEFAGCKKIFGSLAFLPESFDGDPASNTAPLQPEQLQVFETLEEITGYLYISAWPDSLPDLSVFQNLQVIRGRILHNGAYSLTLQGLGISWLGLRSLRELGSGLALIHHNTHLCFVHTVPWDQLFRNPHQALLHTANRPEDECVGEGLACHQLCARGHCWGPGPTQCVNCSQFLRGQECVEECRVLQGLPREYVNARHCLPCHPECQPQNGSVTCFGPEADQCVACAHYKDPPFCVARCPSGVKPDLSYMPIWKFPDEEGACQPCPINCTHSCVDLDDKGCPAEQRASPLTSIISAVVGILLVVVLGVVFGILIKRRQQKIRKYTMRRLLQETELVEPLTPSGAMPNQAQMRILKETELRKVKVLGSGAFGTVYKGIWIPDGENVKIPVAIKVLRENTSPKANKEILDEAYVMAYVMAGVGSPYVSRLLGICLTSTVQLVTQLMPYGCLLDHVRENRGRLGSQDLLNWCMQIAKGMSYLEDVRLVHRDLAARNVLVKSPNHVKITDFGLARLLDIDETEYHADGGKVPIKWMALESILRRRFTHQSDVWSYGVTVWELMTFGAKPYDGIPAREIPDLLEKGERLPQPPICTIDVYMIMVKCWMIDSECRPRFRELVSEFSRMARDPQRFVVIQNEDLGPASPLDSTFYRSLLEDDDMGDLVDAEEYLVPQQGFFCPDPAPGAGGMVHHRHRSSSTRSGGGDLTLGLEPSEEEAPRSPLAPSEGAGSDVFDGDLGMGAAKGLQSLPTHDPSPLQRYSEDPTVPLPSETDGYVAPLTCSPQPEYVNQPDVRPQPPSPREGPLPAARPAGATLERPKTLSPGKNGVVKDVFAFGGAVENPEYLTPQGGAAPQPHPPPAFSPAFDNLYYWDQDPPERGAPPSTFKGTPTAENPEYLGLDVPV
Description: as §1, §2, §3

| Structure (SMILES) | IC50 (A431 cells) [nM] | GI50 [1] [nM] | GI50 [2] [nM] | GI50 [3] [nM] | GI50 [4] [nM] |
| --- | --- | --- | --- | --- | --- |
| Cn1cc(Nc2ncc3c(n2)N(c2cccc(NC(=O)/C=C/CF)c2)C(=O)N(c2ccccc2)CC3)c(Cl)n1 [Compound 33, (E)-N-(3-(2-((3-chloro-1-methyl-1H-pyrazol-4-yl)amino)-8-oxo-7-phenyl-5,6,7,8-tetrahydro-9H-pyrimido[4,5-d][1,3]diazepin-9-yl)phenyl)-4-fluorobut-2-enamide] | > 10000 | 128 | 239 | 131 | 602 |
| C=CC(=O)Nc1cccc(N2C(=O)N(Cc3ccccc3)CCc3cnc(Nc4ccc(N5CCN(C)CC5)cc4OC)nc32)c1 [Compound 14, N-(3-(7-benzyl-2-((2-methoxy-4-(4-methylpiperazin-1-yl)phenyl)amino)-8-oxo-5,6,7,8-tetrahydro-9H-pyrimido[4,5-d][1,3]diazepin-9-yl)phenyl)acrylamide] | 34 | 33 | 38 | 32 | 15 |
| C=CC(=O)Nc1cccc(N2C(=O)N(c3ccc(F)cc3)CCc3cnc(Nc4cn(C)nc4Cl)nc32)c1 [Compound 42, N-(3-(2-((3-chloro-1-methyl-1H-pyrazol-4-yl)amino)-7-(4-fluorophenyl)-8-oxo-5,6,7,8-tetrahydro-9H-pyrimido[4,5-d][1,3]diazepin-9-yl)phenyl)acrylamide] | 23 | 75 | 110 | 3 | 91 |
| C=CC(=O)Nc1cccc(N2C(=O)N(Cc3ccccc3)CCc3cnc(Nc4cn(C)nc4F)nc32)c1 [Compound 11, N-(3-(7-benzyl-2-((3-fluoro-1-methyl-1H-pyrazol-4-yl)amino)-8-oxo-5,6,7,8-tetrahydro-9H-pyrimido[4,5-d][1,3]diazepin-9-yl)phenyl)acrylamide] | 5 | 11 | 10 | 31 | 7 |
| C=CC(=O)Nc1cccc(N2C(=O)N(Cc3ccccc3)CCc3cnc(Nc4cn(C)nc4Cl)nc32)c1 [Compound 5, N-(3-(7-benzyl-2-((3-chloro-1-methyl-1H-pyrazol-4-yl)amino)-8-oxo-5,6,7,8-tetrahydro-9H-pyrimido[4,5-d][1,3]diazepin-9-yl)phenyl)acrylamide] | 2 | 12 | 10 | 7 | 12 |
| C=CC(=O)Nc1cccc(N2C(=O)N(c3ccccc3)CCc3cnc(Nc4cn(C)nc4F)nc32)c1 [Compound 35, N-(3-(2-((3-fluoro-1-methyl-1H-pyrazol-4-yl)amino)-8-oxo-7-phenyl-5,6,7,8-tetrahydro-9H-pyrimido[4,5-d][1,3]diazepin-9-yl)phenyl)acrylamide] | > 10000 | 117 | 122 | 138 | 1060 |
| Cn1cc(Nc2ncc3c(n2)N(c2cccc(NC(=O)/C=C/CF)c2)C(=O)N(Cc2ccccc2)CC3)c(Cl)n1 [Compound 6, (E)-N-(3-(7-benzyl-2-((3-chloro-1-methyl-1H-pyrazol-4-yl)amino)-8-oxo-5,6,7,8-tetrahydro-9H-pyrimido[4,5-d][1,3]diazepin-9-yl)phenyl)-4-fluorobut-2-enamide] | 8 | 9 | 12 | 32 | 10 |
| C=CC(=O)Nc1cccc(N2C(=O)N(c3ccccc3)CCc3cnc(Nc4ccc(N5CCN(C)CC5)cc4OC)nc32)c1 [Compound 39, N-(3-(2-((2-methoxy-4-(4-methylpiperazin-1-yl)phenyl)amino)-8-oxo-7-phenyl-5,6,7,8-tetrahydro-9H-pyrimido[4,5-d][1,3]diazepin-9-yl)phenyl)acrylamide] | 7 | 39 | 92 | 88 | 131 |
| C=CC(=O)Nc1cccc(N2C(=O)N(c3ccccc3)CCc3cnc(Nc4ccc(N5CCN(C)CC5)c(C)c4)nc32)c1 [Compound 41, N-(3-(2-((3-methyl-4-(4-methylpiperazin-1-yl)phenyl)amino)-8-oxo-7-phenyl-5,6,7,8-tetrahydro-9H-pyrimido[4,5-d][1,3]diazepin-9-yl)phenyl)acrylamide] | 102 | 32 | 41 | 27 | 29 |
| C=CC(=O)Nc1cccc(N2C(=O)N(c3ccccc3)CCc3cnc(Nc4ccc(N5CCN(C)CC5)cc4)nc32)c1 [Compound 37, N-(3-(2-((4-(4-methylpiperazin-1-yl)phenyl)amino)-8-oxo-7-phenyl-5,6,7,8-tetrahydro-9H-pyrimido[4,5-d][1,3]diazepin-9-yl)phenyl)acrylamide] | 7 | 38 | 89 | 100 | 138 |
| C=CC(=O)Nc1cccc(N2C(=O)N(Cc3ccccc3)CCc3cnc(Nc4ccc(F)cc4OC)nc32)c1 [Compound 21, N-(3-(7-benzyl-2-((4-fluoro-2-methoxyphenyl)amino)-8-oxo-5,6,7,8-tetrahydro-9H-pyrimido[4,5-d][1,3]diazepin-9-yl)phenyl)acrylamide] | 40 | 97 | 103 | 102 | 44 |
| C=CC(=O)Nc1cccc(N2C(=O)N(Cc3ccccc3)CCc3cnc(Nc4ccc(N5CCN(C)CC5)nc4)nc32)c1 [Compound 16, N-(3-(7-benzyl-2-((6-(4-methylpiperazin-1-yl)pyridin-3-yl)amino)-8-oxo-5,6,7,8-tetrahydro-9H-pyrimido[4,5-d][1,3]diazepin-9-yl)phenyl)acrylamide] | 9 | 25 | 39 | 32 | 25 |
| C=CC(=O)Nc1cccc(N2C(=O)N(Cc3ccccc3)CCc3cnc(Nc4ccc(F)nc4)nc32)c1 [Compound 26, N-(3-(7-benzyl-2-((6-fluoropyridin-3-yl)amino)-8-oxo-5,6,7,8-tetrahydro-9H-pyrimido[4,5-d][1,3]diazepin-9-yl)phenyl)acrylamide] | 134 | 67 | 35 | 90 | 33 |
| C=CC(=O)Nc1cccc(N2C(=O)N(Cc3ccccc3)CCc3cnc(Nc4ccc(F)c(C)c4)nc32)c1 [Compound 9, N-(3-(7-benzyl-2-((4-fluoro-3-methylphenyl)amino)-8-oxo-5,6,7,8-tetrahydro-9H-pyrimido[4,5-d][1,3]diazepin-9-yl)phenyl)acrylamide] | 35 | 46 | 45 | 95 | 28 |
| C/C=C/C(=O)Nc1cccc(N2C(=O)N(Cc3ccccc3)CCc3cnc(Nc4cn(C)nc4Cl)nc32)c1 [Compound 2, (E)-N-(3-(7-benzyl-2-((3-chloro-1-methyl-1H-pyrazol-4-yl)amino)-8-oxo-5,6,7,8-tetrahydro-9H-pyrimido[4,5-d][1,3]diazepin-9-yl)phenyl)but-2-enamide] | > 10000 | 261 | 249 |  | 243 |
| Cn1cc(Nc2ncc3c(n2)N(c2cccc(NC(=O)/C=C/CN4CCCCC4)c2)C(=O)N(c2ccccc2)CC3)c(Cl)n1 [Compound 40, (E)-N-(3-(2-((3-chloro-1-methyl-1H-pyrazol-4-yl)amino)-8-oxo-7-phenyl-5,6,7,8-tetrahydro-9H-pyrimido[4,5-d][1,3]diazepin-9-yl)phenyl)-4-(piperidin-1-yl)but-2-enamide] | > 10000 | 325 | 406 |  | 536 |
| CN(C)C/C=C/C(=O)Nc1cccc(N2C(=O)N(Cc3ccccc3)CCc3cnc(Nc4ccc(N5CCN(C)CC5)nc4)nc32)c1 [Compound 17, (E)-N-(3-(7-benzyl-2-((6-(4-methylpiperazin-1-yl)pyridin-3-yl)amino)-8-oxo-5,6,7,8-tetrahydro-9H-pyrimido[4,5-d][1,3]diazepin-9-yl)phenyl)-4-(dimethylamino)but-2-enamide] | > 10000 | 1130 | 2770 |  | 793 |
| Cn1cc(Nc2ncc3c(n2)N(c2cccc(NC(=O)C(F)Cl)c2)C(=O)N(Cc2ccccc2)CC3)c(Cl)n1 (centres unmarked) [Compound 24, N-(3-(7-benzyl-2-((3-chloro-1-methyl-1H-pyrazol-4-yl)amino)-8-oxo-5,6,7,8-tetrahydro-9H-pyrimido[4,5-d][1,3]diazepin-9-yl)phenyl)-2-chloro-2-fluoroacetamide] | > 10000 | 1150 | 1090 |  | 2000 |
